Experimental data as given in US10800792B2, “Inhibitors of Bruton's tyrosine kinase and method of their use” (JANSSEN PHARMACEUTICA NV, priority 2015, dated 2020).

Target: unphosphorylated-BTK kinase domain (UP-BTK), GST-tagged human BTK (389-659aa) (Homo sapiens (Human), UniProt Q06187)
Assay: BTK kinase Lanthascreen binding assay
Conditions: pIC50 = negative log of the IC50 in molar, 60 minutes incubation, 50 nM Tracer 236; for IC50: read-out: BTK_I_binding pIC50 (converted)
How it was run: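 Values are pIC50, i.e. negative log of IC50 in molar, derived from concentration–response fitting. Each compound competes with a fluorescently labelled tracer for the unphosphorylated kinase domain.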

Sequence of unphosphorylated-BTK kinase domain (UP-BTK), GST-tagged human BTK (389-659aa) (Q06187 389-659): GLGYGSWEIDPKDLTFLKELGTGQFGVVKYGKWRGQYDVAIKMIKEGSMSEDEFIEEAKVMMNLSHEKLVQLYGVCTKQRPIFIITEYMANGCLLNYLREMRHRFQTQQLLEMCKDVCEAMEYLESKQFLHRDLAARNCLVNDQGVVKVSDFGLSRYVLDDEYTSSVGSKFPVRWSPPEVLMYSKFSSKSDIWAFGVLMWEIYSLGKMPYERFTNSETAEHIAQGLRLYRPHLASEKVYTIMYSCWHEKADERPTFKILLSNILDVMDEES

Row | Structure (SMILES) | BTK_I_binding pIC50 | IC50 [nM]
1 | C/C=C/C(=O)N1CCC[C@@H](NC(=O)c2sc3nccc4c3c2NC(=O)N4c2ccc(Oc3ccccc3)cc2C)C1 [Example 105, (R,E)-N-(1-(But-2-enoyl)piperidin-3-yl)-5-(2-methyl-4-phenoxyphenyl)-4-oxo-4,5-dihydro-3H-1-thia-3,5,8-triazaacenaphthylene-2-carboxamide] | 6.9 | 
2 | CNCCC(=O)N1CCC[C@@H](NC(=O)c2sc3nccc4c3c2NC(=O)N4c2ccc(Oc3ccccc3)cc2C)C1 [Example 106, (R)-5-(2-Methyl-4-phenoxyphenyl)-N-(1-(3-(methylamino)propanoyl)piperidin-3-yl)-4-oxo-4,5-dihydro-3H-1-thia-3,5,8-triazaacenaphthylene-2-carboxamide] | 7.3 | 
3 | O=C(N[C@@H]1CCCNC1)c1sc2nccc3c2c1NC(=O)N3c1ccc(Oc2ccccc2)cc1F [Example 107, (R)-5-(2-Fluoro-4-phenoxyphenyl)-4-oxo-N-(piperidin-3-yl)-4,5-dihydro-3H-1-thia-3,5,8-triazaacenaphthylene-2-carboxamide] | 7.5 | 
4 | Cc1cc(Oc2ccccc2)ccc1N1C(=O)Nc2c(C(=O)N[C@@H]3CCOC3)sc3nccc1c23 [Example 108, (R)-5-(2-Methyl-4-phenoxyphenyl)-4-oxo-N-(tetrahydrofuran-3-yl)-4,5-dihydro-3H-1-thia-3,5,8-triazaacenaphthylene-2-carboxamide] | 7.5 | 
5 | C=CC(=O)N1CC(NC(=O)c2sc3nccc4c3c2NC(=O)N4c2ccc(Oc3ccccc3)cc2C)C1 [Example 109, N-(1-Acryloylazetidin-3-yl)-5-(2-methyl-4-phenoxyphenyl)-4-oxo-4,5-dihydro-3H-1-thia-3,5,8-triazaacenaphthylene-2-carboxamide] | 7.2 | 
6 | COc1ccc(N2C(=O)Nc3c(C(=O)N[C@@H]4CCCN(C(=O)C=[13CH2])C4)sc4nccc2c34)c(C)c1 [Example 110, (R)—N-(1-^13C-Acryloylpiperidin-3-yl)-5-(4-methoxy-2-methylphenyl)-4-oxo-4,5-dihydro-3H-1-thia-3,5,8-triazaacenaphthylene-2-carboxamide] |  | 158
7 | COC[C@@H](N)C(=O)N1CCC[C@@H](NC(=O)c2sc3nccc4c3c2NC(=O)N4c2ccc(Oc3ccccc3)cc2C)C1 [Example 111, N—((R)-1-((R)-2-Amino-3-methoxypropanoyl)piperidin-3-yl)-5-(2-methyl-4-phenoxyphenyl)-4-oxo-4,5-dihydro-3H-1-thia-3,5,8-triazaacenaphthylene-2-carboxamide] |  | 63.1
8 | Cc1c(N2C(=O)Nc3c(C(=O)N[C@@H]4CCCN(C(=O)CCS(C)(=O)=O)C4)sc4nccc2c34)ccc(Oc2ccccc2)c1F [Example 113, (R)-5-(3-Fluoro-2-methyl-4-phenoxyphenyl)-N-(1-(3-(methylsulfonyl)propanoyl)piperidin-3-yl)-4-oxo-4,5-dihydro-3H-1-thia-3,5,8-triazaacenaphthylene-2-carboxamide] | 7.3 | 
9 | Cc1c(N2C(=O)Nc3c(C(=O)N[C@@H]4CCCN(C(=O)CO)C4)sc4nccc2c34)ccc(Oc2ccccc2)c1F [Example 114, (R)-5-(3-Fluoro-2-methyl-4-phenoxyphenyl)-N-(1-(2-hydroxyacetyl)piperidin-3-yl)-4-oxo-4,5-dihydro-3H-1-thia-3,5,8-triazaacenaphthylene-2-carboxamide] | 7.3 | 
10 | COCC(=O)N1CCC[C@@H](NC(=O)c2sc3nccc4c3c2NC(=O)N4c2ccc(Oc3ccccc3)c(F)c2C)C1 [Example 115, (R)-5-(3-Fluoro-2-methyl-4-phenoxyphenyl)-N-(1-(2-methoxyacetyl)piperidin-3-yl)-4-oxo-4,5-dihydro-3H-1-thia-3,5,8-triazaacenaphthylene-2-carboxamide] | 7.4 | 
11 | C/C=C\C(=O)N1CCC[C@@H](NC(=O)c2sc3nccc4c3c2NC(=O)N4c2ccc(Oc3ccccc3)cc2C)C1 [Example 116, (R,Z)—N-(1-(But-2-enoyl)piperidin-3-yl)-5-(2-methyl-4-phenoxyphenyl)-4-oxo-4,5-dihydro-3H-1-thia-3,5,8-triazaacenaphthylene-2-carboxamide] | 7.2 | 
12 | Cc1cc(Oc2ccccc2)ccc1N1C(=O)Nc2c(C(=O)N[C@@H]3CCN(C)C3)sc3nccc1c23 [Example 117, (R)-5-(2-Methyl-4-phenoxyphenyl)-N-(1-methylpyrrolidin-3-yl)-4-oxo-4,5-dihydro-3H-1-thia-3,5,8-triazaacenaphthylene-2-carboxamide] | 6.9 | 
13 | Cc1cc(Oc2ccccc2)ccc1N1C(=O)Nc2c(C(=O)N[C@@H]3CCN(C(C)C)C3)sc3nccc1c23 [Example 118, (R)—N-(1-Isopropylpyrrolidin-3-yl)-5-(2-methyl-4-phenoxyphenyl)-4-oxo-4,5-dihydro-3H-1-thia-3,5,8-triazaacenaphthylene-2-carboxamide] | 6.9 | 
14 | C=CC(=O)N1CC[C@@H](NC(=O)c2sc3nccc4c3c2NC(=O)N4c2ccc(CC)cc2C)C1 [Example 119, (R)—N-(1-Acryloylpyrrolidin-3-yl)-5-(4-ethyl-2-methylphenyl)-4-oxo-4,5-dihydro-3H-1-thia-3,5,8-triazaacenaphthylene-2-carboxamide] | 6.6 | 
15 | COC[C@H](N)C(=O)N1CCC[C@@H](NC(=O)c2sc3nccc4c3c2NC(=O)N4c2ccc(Oc3ccccc3)cc2C)C1 [Example 120, N—((R)-1-((S)-2-Amino-3-methoxypropanoyl)piperidin-3-yl)-5-(2-methyl-4-phenoxyphenyl)-4-oxo-4,5-dihydro-3H-1-thia-3,5,8-triazaacenaphthylene-2-carboxamide] | 7.1 | 
16 | C=CC(=O)N1CCC[C@@H](NC(=O)c2sc3nccc4c3c2NC(=O)N4c2ccc(Oc3ccccc3)nn2)C1 [Example 121, (R)—N-(1-Acryloylpiperidin-3-yl)-4-oxo-5-(6-phenoxypyridazin-3-yl)-4,5-dihydro-3H-1-thia-3,5,8-triazaacenaphthylene-2-carboxamide] | 6.7 | 
17 | COC[C@H](O)C(=O)N1CCC[C@@H](NC(=O)c2sc3nccc4c3c2NC(=O)N4c2ccc(Oc3ccccc3)cc2C)C1 [Example 122, N—((R)-1-((S)-2-Hydroxy-3-methoxypropanoyl)piperidin-3-yl)-5-(2-methyl-4-phenoxyphenyl)-4-oxo-4,5-dihydro-3H-1-thia-3,5,8-triazaacenaphthylene-2-carboxamide] | 7.4 | 
18 | Cc1cc(Oc2ccccc2)ccc1N1C(=O)Nc2c(C(=O)NC3CCOCC3)sc3nccc1c23 [Example 123, 5-(2-Methyl-4-phenoxyphenyl)-4-oxo-N-(tetrahydro-2H-pyran-4-yl)-4,5-dihydro-3H-1-thia-3,5,8-triazaacenaphthylene-2-carboxamide] | 6.9 | 

Continued, in another order:

Row | BTK_I_binding pIC50 | Structure (SMILES) | IC50 [nM]
19 | 7.4 | Cc1cc(Oc2ccccc2)ccc1N1C(=O)Nc2c(C(=O)N[C@@H]3CCCN(C(=O)CO)C3)sc3nccc1c23 [Example 124, (R)—N-(1-(2-Hydroxyacetyl)piperidin-3-yl)-5-(2-methyl-4-phenoxyphenyl)-4-oxo-4,5-dihydro-3H-1-thia-3,5,8-triazaacenaphthylene-2-carboxamide] | 
20 | 7.2 | Cc1cc(Oc2ccccc2)ccc1N1C(=O)Nc2c(C(=O)N[C@@H]3CCCN(C(=O)[C@H]4CCN(C)C4)C3)sc3nccc1c23 [Example 125, 5-(2-Methyl-4-phenoxyphenyl)-N—((R)-1-((S)-1-methylpyrrolidine-3-carbonyl)piperidin-3-yl)-4-oxo-4,5-dihydro-3H-1-thia-3,5,8-triazaacenaphthylene-2-carboxamide] | 
21 | 6.7 | C=CC(=O)N1CC[C@@H](NC(=O)c2sc3nccc4c3c2NC(=O)N4c2ccc(OC(C)C)cc2C)C1 [Example 126, (R)—N-(1-Acryloylpyrrolidin-3-yl)-5-(4-isopropoxy-2-methylphenyl)-4-oxo-4,5-dihydro-3H-1-thia-3,5,8-triazaacenaphthylene-2-carboxamide] | 
22 | 7.2 | Cc1c(N2C(=O)Nc3c(C(=O)N[C@@H]4CCCN(C(=O)CCO)C4)sc4nccc2c34)ccc(Oc2ccccc2)c1F [Example 128, (R)-5-(3-Fluoro-2-methyl-4-phenoxyphenyl)-N-(1-(3-hydroxypropanoyl)piperidin-3-yl)-4-oxo-4,5-dihydro-3H-1-thia-3,5,8-triazaacenaphthylene-2-carboxamide] | 
23 | 6.9 | Cc1cc(Oc2ccccc2)ccc1N1C(=O)Nc2c(C(=O)NC3COCCN(C)C3)sc3nccc1c23 (centres unmarked) [Example 129, N-(4-Methyl-1,4-oxazepan-6-yl)-5-(2-methyl-4-phenoxyphenyl)-4-oxo-4,5-dihydro-3H-1-thia-3,5,8-triazaacenaphthylene-2-carboxamide] | 
24 | 7.1 | Cc1cc(Oc2ccccc2)ccc1N1C(=O)Nc2c(C(=O)N[C@@H]3CCCN(C(=O)CCN(C)C)C3)sc3nccc1c23 [Example 130, (R)—N-(1-(3-(Dimethylamino)propanoyl)piperidin-3-yl)-5-(2-methyl-4-phenoxyphenyl)-4-oxo-4,5-dihydro-3H-1-thia-3,5,8-triazaacenaphthylene-2-carboxamide] | 
25 | 7.5 | Cc1cc(Oc2ccccc2)ccc1N1C(=O)Nc2c(C(=O)N[C@@H]3CCCN(C(=O)[C@H]4CCNC4)C3)sc3nccc1c23 [Example 131, 5-(2-Methyl-4-phenoxyphenyl)-4-oxo-N—((R)-1-((S)-pyrrolidine-3-carbonyl)piperidin-3-yl)-4,5-dihydro-3H-1-thia-3,5,8-triazaacenaphthylene-2-carboxamide] | 
26 | 7.2 | Cc1cc(Oc2ccccc2)ccc1N1C(=O)Nc2c(C(=O)N[C@H]3CN(C)C[C@H]3F)sc3nccc1c23 [Example 132, N-((3S,4R)-4-Fluoro-1-methylpyrrolidin-3-yl)-5-(2-methyl-4-phenoxyphenyl)-4-oxo-4,5-dihydro-3H-1-thia-3,5,8-triazaacenaphthylene-2-carboxamide] | 
